# “And” between values parts separate entries of the source, which are not always exact repeats. Identical values can stand only once. Like-named read-outs stand apart in the source and are kept apart here.
# Assays:
# [1] = tested on: tumors in human subjects
# Procedure: Each subject was assigned to one of six dosing cohorts. […] The subjects also received individualized palliative care, as appropriate, to reduce the severity of their symptoms.
# Response to treatment was assessed using the Response Evaluation Criteria in Solid Tumors (RECIST) criteria as described in Therasse et al. 2000, J Natl Cancer Inst. […] Briefly, prior to administration of the first dose, each subject was given a computerized tomography (CT) scan to determine the length of the largest measurable tumor along its longest diameter (“Baseline TM (cm)” in Table 9). CT scans were used to measure the same tumors along the same diameter at certain points after initiation of treatment (“Day X Tumor (cm)” in Table 9). Each such measurement was compared to the baseline tumor measurement for the same subject to calculate the percent increase or decrease in tumor size.
# [2] = tested on: colorectal cancer (CRC); conditions: Study Drug 6 mg/kg + panitumumab 6 mg/kg
# Excerpt: Another study was done in subjects with colorectal cancer (CRC).
# [3] = tested on: non-CRC tumors; conditions: Study Drug 6 mg/kg + panitumumab 6 mg/kg
# [4] = tested on: metastatic pancreatic cancer patients; conditions: for OS, HR (95% CI) for one unit increment in logAUCss / PFS, HR (95% CI) for one unit increment in logAUCss: univariate Cox model
# Procedure: Multivariate analysis was performed to evaluate the effect of exposure on OS and PFS adjusting for potential confounding factors using Cox proportional hazard models with a forward selection technique. All baseline factors were initial candidates in the forward selection model. Only the most statistically significant variables were added to the final model after the forward selection process.
# The effect of exposure on the incidence of selected adverse events (hearing and vestibular disorders, hepatic disorders, hyperglycemia, infusion reaction, neutropenia, rash and skin-related toxicity, thrombocytopenia, and venous embolic and thrombotic events) was summarized with descriptive statistics.
# The effect of exposure on changes in selected laboratory values (aspartate transaminase, alanine transaminase, fasting glucose, total neutrophils, and platelets) was assessed by linear regression.
# [5] = tested on: metastatic pancreatic cancer patients; assay: Placebo-controlled, randomized phase 2 study plus gemcitabine; assay type: in vivo, human; conditions: for 6-Month OS Rate (95% CI) / 12-Month OS Rate (95% CI) / Median OS, Months (95% CI) / Median PFS, Months (95% CI): conatumumab 10 mg/kg Q2W or ganitumab 12 mg/kg Q2W; for Stratified HR (95% CI), OS / Stratified HR (95% CI), PFS: versus placebo plus gemcitabine
# Procedure: The primary endpoint was six month overall survival rate.
# Key inclusion criteria were histologically or cytologically documented metastatic adenocarcinoma of the pancreas, age eighteen years or older, ECOG PS 0 or 1, adequate hematologic, hepatic, renal, and coagulation function, amylase and lipase≦2.0×ULN, adequately controlled type 1 or 2 diabetes (amended during protocol to fasting blood glucose<[…] only), fasting blood glucose≦[…], HbAlc<8%, and written informed consent.
# Key exclusion criteria were uncontrolled cardiac disease and prior chemotherapy or radiation in the adjuvant or metastatic setting.
# [6] = tested on: metastatic pancreatic cancer patients; assay: Overall survival in baseline circulating biomarker subgroups of the phase 2 study; assay type: in vivo, human; design: Median OS: unit not given here
# Excerpt: To establish the relationship between levels of these baseline markers and overall survival, a Cox proportional hazard model was used to calculate hazard ratios (HR) using normalized log transformed marker concentrations. This analysis tests the risk of death associated with a unit increase in the normalized log baseline biomarker and this risk is expressed as a hazard ratio. Because of the small sample size, it is difficult to dissect prognostic associations from relationships that are modified by treatment with ganitumab relative to placebo, i.e., predictive. This is because the addition of treatment effect adds a variable to the analysis that compromises the power of the test masking significant predictive relationships that may exist. However even a prognostic relationship identified in this analysis is important because it informs the hypothesized relationship between circulating bioavailable ligands and the adaptation of the tumor to IGF-1R dependent progression, and in turn sensitivity to inhibitors that block IGF-1R or downstream signaling pathways.
# This allows a direct test of the predictive value of using these markers in a dichotomized way to predict OS in pancreatic cancer patients that are treated with inhibitors of IGF-1R.
# To represent these relationships Kaplan-Maier plots were generated that show the OS for the high and low subgroups by plotting the fraction of patients in each sub-group that survive against time.
# [7] = Subject #1, Nerve Sheath, 3 mg/Kg
# [8] = Subject #4, Colorectal, 10 mg/Kg
# [9] = Subject #8, diagnosis Unknown, 1 mg/Kg
# [10] = Subject #10, Adenoid R eye, 20 mg/Kg
# [11] = Subject #11, Carcinoid, 3 mg/Kg
# [12] = Subject #11, Carcinoid, 3 mg/Kg cohort
# [13] = twelve subjects, 1 to 20 mg/kg, RECIST
# [14] = Ganitumab and Placebo (logAUCss = 0)
# [15] = multivariate Cox model, ganitumab-treated arm
# [16] = patients with measurable disease at baseline, plus gemcitabine
# [17] = plus gemcitabine, listed as ganitumab
substance,measurement,setting,value
Ganitumab,time to significant symptomatic relief after the first dose,"[1]; CR subject, Ewing's sarcoma, 12 mg/kg",two
same,response according to RECIST at day 434,"[1]; CR subject, Ewing's sarcoma, 12 mg/kg at 14 day intervals",CR (100% reduction in tumor dimension)
same,"PET scan, uptake of labeled glucose by tumor","[1]; CR subject, Ewing's sarcoma, 12 mg/kg, day 50",no detectable uptake of labeled glucose
same,decrease in tumor size from baseline (RECIST),"[1]; CR subject, Ewing's sarcoma, 12 mg/kg, day 50, CT scan",78%
same,maximum RECIST tumor dimension reduction,"[1]; PR subject, mid gut carcinoid tumor, 3 mg/kg at 14 day intervals",63%
same,RECIST tumor dimension decrease,"[1]; PR subject, mid gut carcinoid tumor, 3 mg/kg, after 33 weeks in the trial",48%
same,RECIST tumor dimension,"[1]; PR subject, mid gut carcinoid tumor, 3 mg/kg, after 33 weeks in the trial, baseline 13.1 cm",6.8 cm
same,Day 50 Tumor (cm),[1]; [7],1.4 cm
same,"Day 50 Tumor, percent change vs baseline",[1]; [7],(+27%)
same,Day 50 Tumor (cm),"[1]; Subject #2, Prostate, 10 mg/Kg",18.8 cm
same,"Day 50 Tumor, percent change vs baseline","[1]; Subject #2, Prostate, 10 mg/Kg",(+21%)
same,Day 50 Tumor (cm),"[1]; Subject #3, Ovarian, 20 mg/Kg",18.6 cm
same,"Day 50 Tumor, percent change vs baseline","[1]; Subject #3, Ovarian, 20 mg/Kg",(+17%)
same,Day 50 Tumor (cm),[1]; [8],45.3 cm
same,"Day 50 Tumor, percent change vs baseline",[1]; [8],(+7%)
same,Day 50 Tumor (cm),"[1]; Subject #5, Thymus, 1 mg/Kg",10.4 cm
same,"Day 50 Tumor, percent change vs baseline","[1]; Subject #5, Thymus, 1 mg/Kg",(+4%)
same,Day 50 Tumor (cm),"[1]; Subject #6, Melanoma, 10 mg/Kg",28.4 cm
same,"Day 50 Tumor, percent change vs baseline","[1]; Subject #6, Melanoma, 10 mg/Kg",(+1%)
same,Day 50 Tumor (cm),"[1]; Subject #7, Adenoid, 1 mg/Kg",30.9 cm
same,"Day 50 Tumor, percent change vs baseline","[1]; Subject #7, Adenoid, 1 mg/Kg",(−1%)
same,Day 50 Tumor (cm),[1]; [9],18.2 cm
same,"Day 50 Tumor, percent change vs baseline",[1]; [9],(−2%)
same,Day 106 Tumor (cm),[1]; [9],18.9 cm
same,"Day 106 Tumor, percent change vs baseline",[1]; [9],(+2%)
same,Day 162 Tumor (cm),[1]; [9],23.2 cm
same,"Day 162 Tumor, percent change vs baseline",[1]; [9],(+25%)
same,Day 50 Tumor (cm),"[1]; Subject #9, Breast, 20 mg/Kg",4.7 cm
same,"Day 50 Tumor, percent change vs baseline","[1]; Subject #9, Breast, 20 mg/Kg",(−2%)
same,Day 50 Tumor (cm),[1]; [10],35.2 cm
same,"Day 50 Tumor, percent change vs baseline",[1]; [10],(−9%)
same,Day 50 Tumor (cm),[1]; [11],14 cm
same,"Day 50 Tumor, percent change vs baseline",[1]; [11],(+7%)
same,Day 106 Tumor (cm),[1]; [11],11 cm
same,"Day 106 Tumor, percent change vs baseline",[1]; [11],(−16%)
same,Day 169 Tumor (cm),[1]; [11],10.6 cm
same,"Day 169 Tumor, percent change vs baseline",[1]; [11],(−19%)
same,Day 225 Tumor (cm),[1]; [11],8.4 cm
same,"Day 225 Tumor, percent change vs baseline",[1]; [11],(−36%)
same,Day 281 Tumor (cm),[1]; [12],8.2 cm
same,"Day 281 Tumor, percent change vs baseline",[1]; [12],(−37%)
same,Day 338 Tumor (cm),[1]; [12],6.8 cm
same,"Day 338 Tumor, percent change vs baseline",[1]; [12],(−48%)
same,Day 50 Tumor (cm),"[1]; Subject #12, Ewing's, 12 mg/Kg",2.2 cm
same,"Day 50 Tumor, percent change vs baseline","[1]; Subject #12, Ewing's, 12 mg/Kg",(−78%)
same,"Day 85 Tumor, percent change vs baseline","[1]; Subject #12, Ewing's, 12 mg/Kg",(−100%)
same,Day 85 Tumor (cm),"[1]; Subject #12, Ewing's, 12 mg/Kg, listed as Study Drug",0 cm and 0.0 cm
same,number of subjects with a reduction in tumor size of at least 30%,[1]; [13],two
same,number of subjects with best response progressive disease (PD),[1]; [13],two
same,Wk 8 change (RECIST),[2],−27%
same,Wk 8 change (WHO),[2]; CT,−39%
same,best response (WHO criteria),[3]; subject with a GE Junction tumor,stable disease
same,best response (WHO criteria),[3]; subject with a pancreatic tumor,stable disease
same,best response (WHO criteria),[3]; subject with a thyroid tumor,progressive disease
same,"OS, HR (95% CI) for one unit increment in logAUCss",[4]; Ganitumab Only,"0.0421 (0.0089, 0.1983)"
same,"PFS, HR (95% CI) for one unit increment in logAUCss",[4]; Ganitumab Only,"0.0611 (0.0160, 0.2327)"
same,"OS, HR (95% CI) for one unit increment in logAUCss",[4]; [14],"0.8288 (0.6978, 0.9845)"
same,"PFS, HR (95% CI) for one unit increment in logAUCss",[4]; [14],"0.8322 (0.7111, 0.9741)"
same,"Log AUCss HR, effect on Overall Survival",[4]; [15],0.0842
same,"Log AUCss HR, effect on Progression Free Survival",[4]; [15],0.1355
same,"Log AUCss Parameter Estimate, effect on Overall Survival",[4]; [15],−2.4742
same,"Log AUCss Parameter Estimate, effect on Progression Free Survival",[4]; [15],−1.9986
same,Best Overall Response: Confirmed CR - n (%),[5]; [16],0 (0) n (%)
same,Best Overall Response: Confirmed PR - n (%),[5]; [16],4 (10) n (%)
same,Best Overall Response: PD - n (%),[5]; [16],13 (33) n (%)
same,Best Overall Response: SD (Includes Unconfirmed PR) - n (%),[5]; [16],16 (41) n (%)
same,Best Overall Response: Unconfirmed PR - n (%),[5]; [16],0 (0) n (%)
same,Best Overall Response: Unknown - n (%),[5]; [16],6 (15) n (%)
same,rate of SD+PR,[5]; plus gemcitabine,51%
same,6-Month OS Rate (95% CI),[5]; plus gemcitabine,"57% (41, 70)"
same,12-Month OS Rate (95% CI),[5]; plus gemcitabine,"39% (25, 54)"
same,"Median OS, Months (95% CI)",[5]; plus gemcitabine,"8.7 (5.3, 12.2) Months"
same,"Median PFS, Months (95% CI)",[5]; plus gemcitabine,"5.1 (2.8, 5.8) Months"
same,6-Month OS Rate (95% CI),[5]; [17],57%
same,12-Month OS Rate (95% CI),[5]; [17],39%
same,"Median OS, Months (95% CI)",[5]; [17],8.7 Months
same,"Median PFS, Months (95% CI)",[5]; [17],5.1 Months
same,"Stratified HR (95% CI), OS",[5],"0.67 (0.41, 1.12)"
same,"Stratified HR (95% CI), PFS",[5],"0.65 (0.41, 1.04)"
same,"Stratified HR (95% CI), OS",[5]; listed as ganitumab,0.67
same,"Stratified HR (95% CI), PFS",[5]; listed as ganitumab,0.65
same,"difference in median OS, ganitumab treatment arm versus placebo arm",[6]; Free IGF-1 high subgroup,7.59 months
same,Median OS,[6]; IGF-2 High (>=median),368
same,"OS HR, treatment vs placebo",[6]; IGF-2 High (>=median),0.24
same,Median OS,[6]; IGF-2 Low (<median),217.5
same,"OS HR, treatment vs placebo",[6]; IGF-2 Low (<median),0.95
same,Median OS,[6]; IGF-BP1 High (>=median),170
same,"OS HR, treatment vs placebo",[6]; IGF-BP1 High (>=median),0.5
same,"OS HR, treatment vs placebo",[6]; IGF-BP1 Low (<median),0.41
same,Median OS,[6]; IGF-BP2 High (>=median),165
same,"OS HR, treatment vs placebo",[6]; IGF-BP2 High (>=median),0.69
same,Median OS,[6]; IGF-BP2 Low (<median),487
same,"OS HR, treatment vs placebo",[6]; IGF-BP2 Low (<median),0.19
same,Median OS,[6]; IGF-BP3 High (>=median),487
same,"OS HR, treatment vs placebo",[6]; IGF-BP3 High (>=median),0.28
same,Median OS,[6]; IGF-BP3 Low (<median),168
same,"OS HR, treatment vs placebo",[6]; IGF-BP3 Low (<median),0.94
same,Median OS,[6]; IGF-BP4 High (>=median),368
same,"OS HR, treatment vs placebo",[6]; IGF-BP4 High (>=median),0.39
same,Median OS,[6]; IGF-BP4 Low (<median),174.5
same,"OS HR, treatment vs placebo",[6]; IGF-BP4 Low (<median),0.63
same,Median OS,[6]; Total IGF-1 High (>=median),487
same,"OS HR, treatment vs placebo",[6]; Total IGF-1 High (>=median),0.25
same,Median OS,[6]; Total IGF-1 Low (<median),142
same,"OS HR, treatment vs placebo",[6]; Total IGF-1 Low (<median),0.59
